{
  "source": "patent US20150071857A1",
  "about": "“STEROID HORMONE AND CHOLESTEROL PATHWAYS AS ONE UNIFIED HOMEOSTATIC SYSTEM” (LIGAND PHARMACEUTICALS, INC., priority 2012, published 2015)",
  "origin": "cited, not measured here",
  "key": {"[1]": {"settings": "high-dose, postmenopausal women"}, "[2]": {"settings": "parenterally formulated progestin-only contraceptive, women"}, "[3]": {"settings": "large WHI trials"}, "[4]": {"settings": "high dose, on top of statin therapy"}},
  "note": "Read-outs that look alike come from different tables or passages of the source.",
  "data": [
    {"molecule": "O=c1c(-c2ccccc2)coc2ccccc12", "note": "[isoflavone]", "values": [
      {"measurement": "HDL-C change", "setting": "[1]", "result": "significantly reduced"},
      {"measurement": "total T change", "setting": "[1]", "result": "significantly reduced"}
    ]},
    {"molecule": "CC(=O)O[C@]1(C(C)=O)CC[C@H]2[C@@H]3C[C@H](C)C4=CC(=O)CC[C@]4(C)[C@H]3CC[C@@]21C", "note": "[Medroxyprogesterone acetate]", "values": [
      {"measurement": "HDL-C change", "setting": "[2]", "result": "significant reduction in HDL-C"},
      {"measurement": "thrombosis events", "setting": "[3]", "result": "doubled the thrombosis events"}
    ]},
    {"molecule": "O=C(O)c1cccnc1", "note": "[niacin]", "values": [
      {"measurement": "cardiovascular events", "setting": "[4]", "result": "no significant reduction in cardiovascular events"}
    ]}
  ]
}
